Test results as given in patent US9630958B2, “Triazine compounds” (Sphaera Pharma Pte. Ltd., priority 2012, dated 2017).

Key:
[1] = target: T1, PI3 Kinase alpha (p110 alpha/p85 alpha) (Homo sapiens, UniProt P42336); experiment: PI3K TR-FRET assay (Transcreener ADP2); format: biochemical; conditions: for IC50: PI3K alpha, 1 μM ATP, 50 μM PIP2; for inhibition at 1 µM: 1 uM compound, read-out: PI3K % Inhib@1 uM
T1 construct: purchased Invitrogen
Method: Enzymatic activity of PI3K alpha was measured using Time resolved Fluorescence resonance energy transfer (TR-FRET) assay. This assay utilizes ADP detection as a means to screen inhibitor potency of compounds. The Transcreener ADP2 TR-FRET Red Assay is a competitive immunoassay for ADP with a far-red, TR-FRET readout and it has been used for this purpose. The assay can be used for any enzyme class that produces ADP (Kinases, ATPases). It consists of ADP HiLyte647 Tracer, ADP^2 Antibody-Tb conjugate (800 nM), stop & detect buffer, 5 mM ATP, 5 mM ADP. The ADP HiLyte647 Tracer is bound to an ADP^2 Antibody-Tb conjugate. The excitation of the terbium complex in the UV range results in energy transfer to the tracer and emission at a higher wavelength after a time delay ADP produced by the target enzyme displaces the tracer which causes decrease in TR-FRET.
The reaction buffer used for the assay was 50 mM HEPES, pH 7.4.3 mM MgCl2, 0.05% CHAPS, 50 mM NaCl, 2 mM DTT, 1 mM EGTA. PI3 Kinase alpha (p110 alpha/p85 alpha) and PIP2 Substrate (diC8,) were procured from Invitrogen and Echelon respectively.
Kinase reactions were performed in 10 μl volume in Corning white 384 well plates. […] Reaction was initiated by the addition of substrate (PIP2) and ATP at final conc. of 50 μM and 1 μM ATP in the reaction respectively. Kinase reactions were allowed to proceed for 1 hour at room temperature before a 10 μL preparation of Transcreener ADP detection mix was added. Plate was incubated at room temperature for 1 hr. ADP-ATP standard curves were also prepared.
(§1) FRET signal was read in Envision Multilabel Reader with the following filters:
Excitation-330 nm and Emission 615 nm (donor) and 665 nm (acceptor). TR FRET Ratio (Fluorescence 665 nm/Fluorescence 615 nm) was converted to amount of product formed using the standard curve generated. Percentage inhibition was calculated and plotted against the concentration of inhibitor and data was fit to Non Linear Regression curve fit (sigmoidal dose response curve with variable slope-four parameters) using Graph pad prism 5 and IC50 was calculated for the compound.

Recombinant mTOR (FRAP1) = target: T2, Recombinant mTOR (FRAP1) (Homo sapiens, UniProt P42345); experiment: mTOR in vitro kinase assay (TR-FRET, phosphorylation of GFP-4E-BP1); format: biochemical; conditions: for IC50: 8 μM ATP, 400 nM GFP-4E-BP1; for inhibition at 1 µM: 1 uM compound, read-out: mTOR % Inhib@1 uM
T2 construct: purchased Invitrogen
Method: Compounds were evaluated for mTOR activity using an in vitro kinase assay.
mTOR activity is measured in vitro by determining the level of phosphorylation of the protein substrate 4EBP-1. The phosphorylation of GFP-4E-BP1 at threonine residue is recognized by Ab Tb-Anti-p4EBP1, which results in time resolved fluorescence energy transfer (TR-FRET) between GFP and Terbium in the Ab-Protein complex.
Recombinant mTOR (FRAP1), Kinase reaction buffer, GFP-4E-BP1 and LanthaScreen Tb-anti-4E-BP1 (pThr46), TR FRET dilution buffer, Kinase Quench Buffer were obtained from Invitrogen.
Kinase reactions were performed in 10 μl volume in Corning white 384 well plates. […] The reaction was initiated by the addition of substrate (GFP-4E-BP1) and ATP at a final conc. of 400 nM and 8 μM ATP in the reaction respectively. The kinase reaction was allowed to proceed for 1 hour at room temperature before a 10 μL preparation of kinase quench buffer and Tb-labeled Antibody in TR-FRET dilution buffer was added. The final concentration of the antibody in the assay well is 2 nM and the final concentration of EDTA is 10 mM. The plate was incubated at room temperature for 1 h.
as §1
Excitation-330 nm and Emission 486 nm (donor) and 520 nm (acceptor).
TR FRET Ratio (Fluorescence 520 nm/Fluorescence 486 nm) was plotted against the concentration of inhibitor and data was fit to Non Linear Regression curve fit (sigmoidal dose response curve with variable slope-four parameters) using Graph Pad Prism 5.

T1 sequence (P42336 whole entry): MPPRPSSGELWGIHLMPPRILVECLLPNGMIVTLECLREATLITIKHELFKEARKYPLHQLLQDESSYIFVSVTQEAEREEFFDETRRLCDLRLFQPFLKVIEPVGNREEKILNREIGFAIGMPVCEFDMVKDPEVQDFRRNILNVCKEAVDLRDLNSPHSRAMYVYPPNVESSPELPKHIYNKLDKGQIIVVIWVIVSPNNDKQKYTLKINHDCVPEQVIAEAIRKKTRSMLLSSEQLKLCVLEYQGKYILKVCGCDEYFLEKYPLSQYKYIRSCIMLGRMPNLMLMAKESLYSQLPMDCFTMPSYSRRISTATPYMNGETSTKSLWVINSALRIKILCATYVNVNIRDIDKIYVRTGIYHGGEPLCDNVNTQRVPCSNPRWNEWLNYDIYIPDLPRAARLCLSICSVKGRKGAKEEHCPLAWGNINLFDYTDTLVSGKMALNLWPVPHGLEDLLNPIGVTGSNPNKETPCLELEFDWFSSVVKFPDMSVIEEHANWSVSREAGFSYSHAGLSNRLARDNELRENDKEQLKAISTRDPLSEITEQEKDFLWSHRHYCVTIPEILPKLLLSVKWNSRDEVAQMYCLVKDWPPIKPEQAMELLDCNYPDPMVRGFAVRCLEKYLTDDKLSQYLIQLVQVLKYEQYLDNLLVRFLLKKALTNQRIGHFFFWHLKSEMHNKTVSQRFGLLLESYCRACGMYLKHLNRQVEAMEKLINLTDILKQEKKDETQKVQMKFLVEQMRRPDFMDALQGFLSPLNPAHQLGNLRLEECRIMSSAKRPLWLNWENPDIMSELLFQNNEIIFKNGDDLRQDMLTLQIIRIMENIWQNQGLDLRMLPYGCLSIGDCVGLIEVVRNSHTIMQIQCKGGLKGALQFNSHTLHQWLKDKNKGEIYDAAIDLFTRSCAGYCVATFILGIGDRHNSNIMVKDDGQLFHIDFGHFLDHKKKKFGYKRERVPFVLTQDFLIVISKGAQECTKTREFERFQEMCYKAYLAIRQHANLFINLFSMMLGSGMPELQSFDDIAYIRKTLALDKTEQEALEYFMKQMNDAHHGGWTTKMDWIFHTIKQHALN
T1 sequence (P27986 whole entry partner): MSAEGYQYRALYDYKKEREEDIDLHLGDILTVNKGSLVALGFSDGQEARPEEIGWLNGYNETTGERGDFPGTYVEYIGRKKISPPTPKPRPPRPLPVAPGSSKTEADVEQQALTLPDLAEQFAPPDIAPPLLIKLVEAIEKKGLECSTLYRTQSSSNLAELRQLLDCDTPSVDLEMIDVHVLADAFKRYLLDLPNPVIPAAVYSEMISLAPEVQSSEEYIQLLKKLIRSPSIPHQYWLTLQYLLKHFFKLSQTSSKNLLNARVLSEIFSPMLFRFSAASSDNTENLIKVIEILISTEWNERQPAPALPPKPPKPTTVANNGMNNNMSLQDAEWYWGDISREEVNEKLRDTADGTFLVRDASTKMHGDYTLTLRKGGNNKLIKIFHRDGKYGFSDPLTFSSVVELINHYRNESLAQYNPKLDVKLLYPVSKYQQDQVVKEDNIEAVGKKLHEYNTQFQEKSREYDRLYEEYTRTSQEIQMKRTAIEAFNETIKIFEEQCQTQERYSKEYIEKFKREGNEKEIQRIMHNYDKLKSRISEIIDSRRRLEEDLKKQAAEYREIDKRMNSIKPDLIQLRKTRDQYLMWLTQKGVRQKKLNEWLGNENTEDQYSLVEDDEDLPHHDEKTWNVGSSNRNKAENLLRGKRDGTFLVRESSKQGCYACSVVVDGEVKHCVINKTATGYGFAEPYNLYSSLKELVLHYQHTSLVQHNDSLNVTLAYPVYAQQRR
T2 sequence (P42345 1360-2549 limits assumed): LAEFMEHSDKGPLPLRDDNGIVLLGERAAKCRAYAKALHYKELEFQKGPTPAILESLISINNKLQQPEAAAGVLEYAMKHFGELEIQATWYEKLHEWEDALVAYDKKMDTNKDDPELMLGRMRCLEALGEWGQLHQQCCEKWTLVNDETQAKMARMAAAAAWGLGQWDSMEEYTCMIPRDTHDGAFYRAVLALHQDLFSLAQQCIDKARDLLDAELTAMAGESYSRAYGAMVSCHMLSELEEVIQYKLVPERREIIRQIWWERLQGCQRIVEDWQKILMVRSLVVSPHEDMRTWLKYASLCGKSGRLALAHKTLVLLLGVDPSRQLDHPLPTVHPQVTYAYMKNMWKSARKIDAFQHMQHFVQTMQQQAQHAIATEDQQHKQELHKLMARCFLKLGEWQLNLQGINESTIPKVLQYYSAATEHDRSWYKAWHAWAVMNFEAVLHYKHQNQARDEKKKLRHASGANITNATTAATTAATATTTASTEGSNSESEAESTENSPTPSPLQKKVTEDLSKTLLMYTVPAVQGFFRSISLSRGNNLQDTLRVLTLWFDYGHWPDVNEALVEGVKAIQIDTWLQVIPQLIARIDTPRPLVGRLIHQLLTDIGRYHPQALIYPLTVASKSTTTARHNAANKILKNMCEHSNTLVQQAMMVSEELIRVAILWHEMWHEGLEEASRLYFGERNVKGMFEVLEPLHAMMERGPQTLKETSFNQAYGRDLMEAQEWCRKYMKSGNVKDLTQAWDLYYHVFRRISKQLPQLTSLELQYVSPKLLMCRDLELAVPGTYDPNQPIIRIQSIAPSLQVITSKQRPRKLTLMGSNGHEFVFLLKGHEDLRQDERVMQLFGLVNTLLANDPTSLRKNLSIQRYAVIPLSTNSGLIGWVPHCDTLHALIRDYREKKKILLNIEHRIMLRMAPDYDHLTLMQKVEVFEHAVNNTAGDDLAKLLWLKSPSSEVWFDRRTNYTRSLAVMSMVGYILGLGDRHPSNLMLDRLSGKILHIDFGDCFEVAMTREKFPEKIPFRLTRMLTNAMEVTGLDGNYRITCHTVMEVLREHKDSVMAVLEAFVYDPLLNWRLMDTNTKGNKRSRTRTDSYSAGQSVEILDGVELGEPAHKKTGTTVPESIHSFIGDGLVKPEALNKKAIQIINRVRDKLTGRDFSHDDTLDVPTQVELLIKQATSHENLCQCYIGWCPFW

With `CN(C)C(=O)c1ccc(Oc2nc(-c3cnc4[nH]ccc4c3)nc(N3CCOCC3)n2)c(F)c1` [Compound 10158, 4-(4-morpholino-6-(1H-pyrrolo[2,3-b]pyridin-5-yl)-1,3,5-triazin-2-yloxy)-3-fluoro-N,N-dimethylbenzamide] the IC50 [1] was less than 1000 nM and the IC50 (Recombinant mTOR (FRAP1)) was less than 1000 nM.
`CN(C)C(=O)c1ccc(Oc2nc(-c3cnc(N)s3)nc(N3CCOCC3(C)C)n2)cc1` [Compound 10128, 4-(4-(2-aminothiazol-5-yl)-6-(3,3-dimethylmorpholino)-1,3,5-triazin-2-yloxy)-N,N-dimethylbenzamide] gave an inhibition at 1 µM [1] greater than 50%, an IC50 [1] of less than 1000 nM and an inhibition at 1 µM (Recombinant mTOR (FRAP1)) greater than 50%. For the same compound, the IC50 (Recombinant mTOR (FRAP1)) was less than 1000 nM.
Compound `C[C@H]1COCCN1c1nc(Oc2ccc(C(=O)N(C)C)cc2)nc(-c2cnc(N(C)C)s2)n1` [Compound 10143, 4-(4-(2-(dimethylamino)thiazol-5-yl)-6-((S)-3-methylmorpholino)-1,3,5-triazin-2-yloxy)-N,N-dimethylbenzamide] has an inhibition at 1 µM [1] of less than 50%, an IC50 [1] greater than 1000 nM and an IC50 (Recombinant mTOR (FRAP1)) greater than 1000 nM.
`C[C@H]1COCCN1c1nc(Oc2ccc(C(=O)N(C)C)cc2)nc(-c2cnc3[nH]ccc3c2)n1` [Compound 10157, 4-(4-((S)-3-methylmorpholino)-6-(1H-pyrrolo[2,3-b]pyridin-5-yl)-1,3,5-triazin-2-yloxy)-N,N-dimethylbenzamide] was tested, and the IC50 [1] was less than 1000 nM and the IC50 (Recombinant mTOR (FRAP1)) was less than 1000 nM.
With `C[C@@H]1CN(c2nc(Oc3ccc(C(=O)N(C)C)cc3F)nc(-c3ccc(N)nc3)n2)[C@@H](C)CO1` [Compound 10098, 4-((4-(6-Aminopyridin-3-yl)-6-((2R,5S)-2,5-dimethylmorpholino)-1,3,5-triazin-2-yl)oxy)-3-fluoro-N,N-dimethylbenzamide] the inhibition at 1 µM [1] was greater than 50%, the IC50 [1] was less than 1000 nM and the IC50 (Recombinant mTOR (FRAP1)) was less than 1000 nM.
With `CNC(=O)c1ccc(Oc2nc(-c3cnc(N)s3)nc(N3CCOCC3)n2)cc1` [Compound 10193, 4-((4-(2-aminothiazol-5-yl)-6-morpholino-1,3,5-triazin-2-yl)oxy)-N-methylbenzamide] the IC50 [1] was less than 1000 nM and the inhibition at 1 µM (Recombinant mTOR (FRAP1)) was less than 50%.
With `CN(C)C(=O)c1ccc(Oc2nc(-c3cnc(N)s3)nc(N3[C@@H]4CC[C@H]3COC4)n2)cc1` [Compound 10011, 4-(4-(2-aminothiazol-5-yl)-6-((1R,5S)-3-oxa-8-azabicyclo[3.2.1]octan-8-yl)-1,3,5-triazin-2-yloxy)-N,N-dimethylbenzamide] the IC50 [1] was greater than 1000 nM, the inhibition at 1 µM (Recombinant mTOR (FRAP1)) was greater than 50% and the IC50 (Recombinant mTOR (FRAP1)) was less than 1000 nM.
`CN(C)C(=O)c1ccc(Oc2nc(-c3cnc(N)s3)nc(N3CCO[C@H]4CCC[C@@H]43)n2)c(F)c1` [Compound 10146, 4-(4-(2-aminothiazol-5-yl)-6-((4aS,7aS)-hexahydrocyclopenta[b][1,4]oxazin-4(4aH)-yl)-1,3,5-triazin-2-yloxy)-3-fluoro-N,N-dimethylbenzamide] was tested, and the IC50 [1] was less than 1000 nM and the IC50 (Recombinant mTOR (FRAP1)) was less than 1000 nM.
`CN(C)C(=O)c1ccc(Oc2nc(-c3ccc4[nH]ncc4c3)nc(N3C4CCC3COC4)n2)c(F)c1` [Compound 10136, 4-(4-(3-oxa-8-aza-bicyclo[3.2.1]octan-8-yl)-6-(1H-indazol-5-yl)-1,3,5-triazin-2-yloxy)-3-fluoro-N,N-dimethylbenzamide] showed an inhibition at 1 µM [1] of less than 50%, an IC50 [1] greater than 10000 nM and an inhibition at 1 µM (Recombinant mTOR (FRAP1)) greater than 50%. For the same compound, the IC50 (Recombinant mTOR (FRAP1)) was less than 1000 nM.
With `C[C@H]1COCCN1c1nc(Oc2ccc(C(=O)N(C)C)cc2)nc(-c2cnc(N)nc2)n1` [Compound 10126, 4-(4-(2-aminopyrimidin-5-yl)-6-((S)-3-methylmorpholino)-1,3,5-triazin-2-yloxy)-N,N-dimethylbenzamide] the IC50 [1] was less than 1000 nM, the inhibition at 1 µM (Recombinant mTOR (FRAP1)) was greater than 50% and the IC50 (Recombinant mTOR (FRAP1)) was less than 1000 nM.
`C[C@H]1COCCN1c1nc(Oc2ccc(C(=O)N(C)C)cc2F)nc(-c2ccc3[nH]ccc3c2)n1` [Compound 10100, (S)-4-((4-(1H-indol-5-yl)-6-(3-methylmorpholino)1,3,5-triazin-2-yl)oxy)3-fluoro-N,N-dimethylbenzamide] was tested, and the IC50 [1] was less than 1000 nM, the inhibition at 1 µM (Recombinant mTOR (FRAP1)) was greater than 50% and the IC50 (Recombinant mTOR (FRAP1)) was less than 1000 nM.
In the case of `CN(C)C(=O)c1ccc(Oc2nc(Nc3nccs3)nc(N3CCOCC3)n2)cc1` [Compound 10191, N,N-dimethyl-4-((4-morpholino-6-(thiazol-2-ylamino)-1,3,5-triazin-2-yl)oxy)benzamide], the IC50 [1] is reported as greater than 1000 nM and the inhibition at 1 µM (Recombinant mTOR (FRAP1)) is reported as less than 50%.
With `CN(C)C(=O)c1cccc(Oc2nc(-c3cnc(N)s3)nc(N3CCOCC3)n2)c1` [Compound 10195, 3-((4-(2-aminothiazol-5-yl)-6-morpholino-1,3,5-triazin-2-yl)oxy)-N,N-dimethylbenzamide] the IC50 [1] was less than 1000 nM and the inhibition at 1 µM (Recombinant mTOR (FRAP1)) was less than 50%.
`CN(C)C(=O)c1ccc(Nc2nc(-c3cnc(N)s3)nc(N3CCOCC3)n2)cc1` [Compound 10196, 4-((4-(2-aminothiazol-5-yl)-6-morpholino-1,3,5-triazin-2-yl)amino)-N,N-dimethylbenzamide] gave an IC50 [1] of less than 1000 nM and an inhibition at 1 µM (Recombinant mTOR (FRAP1)) of less than 50%.
`C[C@H]1COCCN1c1nc(Oc2ccc(C(=O)N(C)C)cc2F)nc(-c2cnc(N)s2)n1` [Compound 10010, (S)-4-(4-(2-aminothiazol-5-yl)-6-(3-methylmorpholino)-1,3,5-triazin-2-yloxy)-3-fluoro-N,N-dimethylbenzamide] was tested, and the inhibition at 1 µM [1] was greater than 50%, the IC50 [1] was less than 1000 nM and the inhibition at 1 µM (Recombinant mTOR (FRAP1)) was greater than 50%. For the same compound, the IC50 (Recombinant mTOR (FRAP1)) was less than 1000 nM.
Work on `C[C@@H]1CN(c2nc(Oc3ccc(C(=O)N(C)C)cc3F)nc(-c3cnc(N)s3)n2)C[C@H](C)O1` [Compound 10069] yielded an IC50 [1] greater than 1000 nM and an IC50 (Recombinant mTOR (FRAP1)) of less than 1000 nM.
Compound `C[C@H]1COCCN1c1nc(Oc2ccc(C(=O)N(C)C)cc2)nc(C2=CC=C(N)N(O)C2)n1` [Compound 10125] has an inhibition at 1 µM [1] of less than 50% and an inhibition at 1 µM (Recombinant mTOR (FRAP1)) of less than 50%.
`C[C@H]1CN(c2nc(Oc3ccc(C(=O)N(C)C)cc3F)nc(-c3ccc(N)nc3)n2)[C@@H](C)CO1` [Compound 10097, 4-((4-(6-Aminopyridin-3-yl)-6-((2S,5S)-2,5-dimethylmorpholino)-1,3,5-triazin-2-yl)oxy)-3-fluoro-N,N-dimethylbenzamide] was tested, and the inhibition at 1 µM [1] was greater than 50%, the IC50 [1] was less than 1000 nM and the IC50 (Recombinant mTOR (FRAP1)) was less than 1000 nM.
`C[C@H]1COCCN1c1nc(Oc2ccc(C(=O)N(C)C)cc2F)nc(-c2cnc3[nH]ccc3c2)n1` [Compound 10103, (S)-3-Fluoro-N,N-dimethyl-4-((4-(3-methylmorpholino)-6-(1H-pyrrolo-[2,3-b]pyridin-5-yl)-1,3,5-triazin-2-yl)oxy)benzamide] was tested, and the IC50 [1] was less than 1000 nM and the IC50 (Recombinant mTOR (FRAP1)) was less than 1000 nM.
Work on `CN(C)C(=O)c1ccc(Oc2nc(-c3cnc(N)s3)nc(N3CCSCC3)n2)cc1` [Compound 10118, 4-(4-(2-aminothiazol-5-yl)-6-thiomorpholino-1,3,5-triazin-2-yloxy)-N,N-dimethylbenzamide] yielded an IC50 [1] greater than 1000 nM, an inhibition at 1 µM (Recombinant mTOR (FRAP1)) greater than 50% and an IC50 (Recombinant mTOR (FRAP1)) greater than 3000 nM.
`CN(C)C(=O)N1CCC(Oc2nc(-c3cnc(N)s3)nc(N3CCOCC3)n2)CC1` [Compound 10003, 4-(4-(2-aminothiazol-5-yl)-6-morpholino-1,3,5-triazin-2-yloxy)-N,N-dimethylpiperidine-1-carboxamide] was tested, and the IC50 [1] was less than 1000 nM, the inhibition at 1 µM (Recombinant mTOR (FRAP1)) was greater than 50% and the IC50 (Recombinant mTOR (FRAP1)) was less than 1000 nM.
In the case of `CN(C)C(=O)c1cccc(Nc2nc(-c3cnc(N)s3)nc(N3CCOCC3)n2)c1` [Compound 10200, 3-((4-(2-aminothiazol-5-yl)-6-morpholino-1,3,5-triazin-2-yl)amino)-N,N-dimethylbenzamide], the IC50 [1] is reported as less than 1000 nM and the inhibition at 1 µM (Recombinant mTOR (FRAP1)) is reported as less than 50%.
